# Data: US8329645B2, “Polymyxin derivatives and uses thereof” (priority 2008, dated 2012)
# Where a SMILES comes first, the peptide text is derived from it. Bridges are numbered along the chain shown (N, C = ends). [ ]: non-standard residue; d: D form. The star is where a group is joined. Decanoyl = CCCCCCCCCC(=O)*; Octanoyl = CCCCCCCC(=O)*; Dab = NCC[C@H](N)C(=O)O
# Tests used:
# E. coli IH3080 = experiment: Experimental E. coli peritonitis model in mice, NAB739 (Example 18); type: in vivo
# Description: A suspension of E. coli IH3080 (K1:O18) in saline (0.9% NaCl) was prepared from an overnight culture on a blood agar plate (Statens Serum Institut, Copenhagen, Denmark). All mice (female NMR1 from Harlan Scandinavia, Allerød, Denmark; weight, 25-30 g) were inoculated intraperitoneally with 0.5 ml of the suspension containing 0.96×10^6 CFU per ml in the lateral lower quadrant of the abdomen. At 1 h, the CFU count was determined from three mice and the remaining mice (four mice per group) were treated with a subcutaneous injection of 0.2 ml of erythromycin solution in saline (corresponding to 5 mg/kg body weight) or NAB7061 solution in saline (corresponding to 5 mg/kg body weight), or both erythromycin and NAB7061 (corresponding to 5 mg/kg body weight of both drugs; given at two separate sites). Control group received two 0.2 ml injections of saline. At 4.5 h postinfection, all mice were anaesthetized with CO2 and sacrificed. Sterile saline (2 ml) was injected intraperitoneally and the abdomen was gently massaged before it was opened and the fluid sampled. Appropriate dilutions of the fluid were plated on blood agar plates, the plates were incubated overnight, and the colonies were counted.
# The experiment was performed by using the methodology described in Example 12.
# The mice were inoculated intraperitoneally with 0.5 ml of the E. coli IH3080 suspension containing 1×10^6 CFU per ml. The treatment groups (7 animals per group) were the following: A, control animals receiving saline; B, animals receiving the dose of 1 mg/kg of NAB739 subcutanously at 1 h and at 3 h postinfection; C, animals receiving the dose of 2 mg/kg of NAB739 subcutanously at 1 h and at 3 h postinfection; D, animals receiving the dose of 4 mg/kg of NAB739 subcutanously at 1 h and at 3 h postinfection; E, animals receiving the dose of 2 mg/kg of the control compound, polymyxin B sulfate (Sigma-Aldrich, P0972) subcutanously at 1 h and at 3 h postinfection.
# Pseudomonas aeruginosa = type: cell-based
# Description: Polymyxin B sulfate (Sigma-Aldrich, St. Louis, Mo., USA) was used as a control. […] Fourteen (14) strains (the F-strains) were purchased from Mobidiag Ltd., Helsinki, Finland. Besides bacteria, the MIC was also determined for the yeast Candida albicans (ATCC 28366 from ATCC). The inocula were prepared by adjusting the bacterial suspensions to a density equivalent to OD546 nm˜0.3 (˜10^8 CFU/ml˜0.5 McFarland) the yeast suspension to a density equivalent to OD546 nm˜0.75 (˜2×10^7 CFU/ml)._The suspensions were diluted to 10^7 CFU/ml. The plates were inoculated by using a Denley Multipoint Inoculator, 1 μl per spot corresponding to approx. 10^4 CFU/spot. Plates were incubated for 16-20 hours at 35° C. […] Both agents had good activity also against other polymyxin-susceptible strains of Enterobacteriaceae. […] S. aureus and C. albicans were resistant to the NAB peptides.
# E. cloacae ATCC23355 = experiment: Growth inhibition around wells on LB agar plates; type: cell-based, Enterobacter cloacae; conditions: 4 μg
# Description: From an overnight-grown culture of IH3080 on LB agar, a suspension of approx. 10^8 cells/ml was prepared in 0.9% NaCl. Aliquots of this suspension were then pipetted on the agar plates and the plates were gently shaken to spread the suspension evenly on the entire surface of the plate. Thereafter, the unabsorbed part of the suspension was removed by using a Pasteur pipette. After the surface had dried, small wells (diameter, 2 mm) were drilled on the plates (five wells per plate) by using a sterile sharp-edged narrow metal tube, single-use pipette tip, and vacuum suction. An alternative method used a swab to spread the inoculum. Samples (4 μl and 10 μl) of the peptide solution in 0.9% NaCl (at concentrations of 1 μg/ml and 0.1 μg/ml) were then pipetted to the wells and the sample fluids were allowed to absorb. Controls included 0.9% NaCl solution without the compound to be tested. The plates were then incubated for 18 h at 37° C. whereafter the diameters of growth inhibition zones around each well were measured; the diameter of the well itself was not reduced. Finally, the diameters were converted to surface areas of growth inhibition (in square mm).
# The susceptibility of eleven Gram-negative bacterial strains (nine different species) to NAB734 and polymyxin B was compared by using the susceptibility determination method described in Example 2. The strains included those belonging to the species of Serratia marcescens and Proteus mirabilis, both species generally known to be resistant to polymyxin. Furthermore, the susceptibility determination was also performed by using the Gram-positive bacterium, Staphylococcus aureus, also generally known to be polymyxin-resistant. Ten of the strains originated from ATCC (American Type Culture Collection, Manassas, Va., U.S.A.), and one from CCUG (Culture Collection of University of Gothenburg, Sweden). The source of E. coli IH3080 has been described in Example 2. Polymyxin B sulfate was from Sigma-Aldrich (St. Louis, Mo., USA).
molecule,measurement,setting,value
"CCCCCCCC(=O)N[C@H](C(=O)N[C@H](CO)C(=O)N[C@H]1CCNC(=O)[C@H]([C@@H](C)O)NC(=O)[C@H](CCN)NC(=O)[C@H](CCN)NC(=O)[C@H](CC(C)C)NC(=O)[C@@H](Cc2ccccc2)NC(=O)[C@H](CCN)NC1=O)[C@@H](C)O [NAB 739, OA-Thr-DSer-cy[Dab-Dab-DPhe-Leu-Dab-Dab-Thr-]] (Octanoyl-T[dS][Dab][Dab][dF]L[Dab][Dab]T; lactam 3-C)","CFU counts from the peritoneum, fold lower than in the saline control group","E. coli IH3080; 1 mg/kg s.c. at 1 h and 3 h, 7 h postinfection",≥ 10 000 fold
same,"CFU counts from the peritoneum, fold lower than in the saline control group","E. coli IH3080; 2 mg/kg s.c. at 1 h and 3 h, both 4 h and 7 h postinfection",≥ 10 000 fold
same,"CFU counts from the peritoneum, fold lower than in the saline control group","E. coli IH3080; 4 mg/kg s.c. at 1 h and 3 h, both 4 h and 7 h postinfection",≥ 10 000 fold
"CCCCCCCCCC(=O)N[C@H](C(=O)N[C@H](CO)C(=O)N[C@H]1CCNC(=O)[C@H]([C@@H](C)O)NC(=O)[C@H](CCN)NC(=O)[C@H](CCN)NC(=O)[C@H](CC(C)C)NC(=O)[C@@H](Cc2ccccc2)NC(=O)[C@H](CCN)NC1=O)[C@@H](C)O [NAB 740, DA-Thr-DSer-cy[Dab-Dab-DPhe-Leu-Dab-Dab-Thr-]] (Decanoyl-T[dS][Dab][Dab][dF]L[Dab][Dab]T; lactam 3-C)","MIC, range for Pseudomonas aeruginosa",Pseudomonas aeruginosa,4 to 8 µg/mL
Polymyxin B [reference compound],growth inhibition around a well,E. cloacae ATCC23355,95 square millimeters
